This test relates to r(CUG)12-MBNL1 complex. Nature of the test: Small molecule inhibition of the r(CUG)12-MBNL1 complex measured by TR-FRET. Format: binding. Conditions: biotinylated r(CUG)12 80 nM, MBNL1-His6 60 nM. As to the method: Example 28: Small Molecule Inhibition of the r(CUG)12-MBNL1 Complex Measured by Time Resolved Fluorescence Resonance Energy Transfer (TR-FRET)
The in vitro activity of small molecules were assessed by measuring the inhibition of the r(CUG)12-MBNL1 complex using a TR-FRET assay previously reported by Chen et al Analytical and Bioanalytical Chemistry 2012, 402, 1889. Biotinylated r(CUG)12 was folded at 60° C. in 1× Folding Buffer (20 mM HEPES, pH 7.5, 100 mM KCl, and 10 mM NaCl) and slowly cooled to room temperature. The buffer was then adjusted to 1× TR-FRET Buffer (1× Folding Buffer supplemented with 2 mM MgCl2, 2 mM CaCl2, 5 mM DTT, 0.1% BSA, 0.05% Tween-20) and MBNL1-His6 was added. The final concentrations of RNA and MBNL1-His6 were 80 nM and 60 nM, respectively. Then dilutions of the small molecule were made in 1× TR-FRET buffer. The samples were equilibrated at room temperature for 15 min, after which 1 μL of antibody solution (1:1 mixture of 8.8 ng/μL Anti-His6-Tb and 800 nM streptavidin XL-665) was added. Samples were incubated at room temperature for 1 h, and then TR-FRET was measured using a Molecular Devices SpectraMax M5 plate reader using an excitation wavelength of 345 nm and a 420 nm cutoff. Controls for maximum TR-FRET (100% complex formation) contained 8 μL of 1× TR-FRET Buffer with RNA and protein and 1 μL water. Controls for minimum TR-FRET (no complex formation) contained 8 μL of 1× Assay Buffer, 1 μL water, and no RNA or protein.
To calculate the percent inhibition of complex formation, the ratio of fluorescence intensity at 545 nm and 665 nm in the presence of compound was compared to the ratio in the absence of small molecule (100% r(CUG)12-MBNL1 complex formation) and in the absence of RNA and protein (no complex formation). The resulting curves were fit to the following equation to determine IC50 values: […]
where y is ratio of fluorescence intensities at 545 nm and 665 nm (F545/F665), x is the concentration of small molecule, B is F545/F665 value at max FRET effect (solution has RNA and protein but no small molecule added); A is F545/F665 value at min FRET effect (solution has antibodies but no RNA, protein, or small molecule); and the IC50 is the concentration of small molecule where half of the protein is displaced by small molecule.
(In general: Time-resolved FRET reads energy transfer from a long-lived donor to a nearby acceptor.)

For the compound “3,3′-((2,2′-(2-(3-((3-(2,5-bis(6-(3-(dimethylamino)propoxy)-1H-benzo[d]imidazol-2-yl)phenoxy)propyl)(methyl)amino)propoxy)-1,4-phenylene)bis(1H-benzo[d]imidazole-6,2-diyl))bis(oxy))bis(N,N-dimethylpropan-1-amine) [Ex 18]”, the 50% inhibitory concentration (IC50) – broadly, the midpoint of a concentration-inhibition curve – worked out at 0.72 µM.

The compound “3,3′-((2,2′-(((oxybis(ethane-2,1-diyl))bis(oxy))bis(2,1-phenylene))bis(1H-benzo[d]imidazole-6,2-diyl))bis(oxy))bis(N,N-dimethylpropan-1-amine) [Ex 13]” came in with a half-maximal inhibitory concentration (IC50) of 188 µM.

With “3,3′-((2,2′-((ethane-1,2-diylbis(oxy))bis(2,1-phenylene))bis(1H-benzo[d]imidazole-6,2-diyl))bis(oxy))bis(N,N-dimethylpropan-1-amine) [Ex 12]”, the IC50 was more than 200 µM.

Compound `CN(C)CCCOc1ccc2nc(-c3ccccc3OCCOCCOCCOc3ccccc3-c3nc4ccc(OCCCN(C)C)cc4[nH]3)[nH]c2c1` [Ex 14a, 3,3′-((2,2′-((((ethane-1,2-diylbis(oxy))bis(ethane-2,1-diyl))bis(oxy))bis(2,1-phenylene))bis(1H-benzo[d]imidazole-6,2-diyl))bis(oxy))bis(N,N-dimethylpropan-1-amine)] gave an IC50 of 166 µM.

On to `CN(C)CCCOc1ccc2nc(-c3ccccc3OCCOCCOCCOc3ccccc3-c3nc4ccc(O)cc4[nH]3)[nH]c2c1` [Ex 14b, 2-(2-(2-(2-(2-(2-(6-(3-(dimethylamino)propoxy)-1H-benzo[d]imidazole-2-yl)phenoxy)ethoxy)ethoxy)ethoxy)phenyl)-1H-benzo[d]imidazol-6-ol], for which the IC50 is more than 200 µM.

In turn, `CN(C)CCCOc1ccc2nc(-c3ccc(-c4nc5ccc(OCCCN(C)C)cc5[nH]4)c(OCCCCCCCCCCCCOc4cc(-c5nc6ccc(OCCCN(C)C)cc6[nH]5)ccc4-c4nc5ccc(OCCCN(C)C)cc5[nH]4)c3)[nH]c2c1` [Ex 20, 3,3′,3″,3′″-((((dodecane-1,12-diylbis(oxy))bis(benzene-2,1,4-triyl))tetrakis(1H-benzo[d]imidazole-2,5-diyl))tetrakis(oxy))tetrakis(N,N-dimethylpropan-1-amine)] showed an IC50 of 2.8 µM.
